In patent US11970600B2, “Di-cumyl peroxide crosslinking of UHMWPE” (priority 2021, dated 2024):
Read-outs that look alike come from different tables or passages of the source.

Legend:
[1] = parameters: species or system humans; settings: for ALfemale (allowable limit): adult females, 58 kg body weight; for ALmale (allowable limit): adult males, 70 kg body weight
Method: Toxicological risk assessment of five previously characterized byproducts, per Sayoun, J; Crepet A; Gouanve F; Keromnes L; Espuche E. 2017. “Diffusion mechanism of byproducts resulting from the peroxide crosslinking of polyethylene.” J. Appl. Polym. Sci. 44525. doi: 10.1002/APP.44525, was carried out following ISO 10993-17:2002. Quantification was based on the maximum amount of chemical exposures from the anticipated maximum number of implants a patient may receive (in this case, 4 implants). An exhaustive literature search for toxicity data was conducted specific to each chemical of interest. This was accomplished via ToxPlanet (a federated search engine that extracts the content from 500+ websites). Biocompatibility endpoints were determined based on ISO 10993-1:2018 and recent United States Food and Drug Administration (US Food and Drug Administration 2016a. “Use of International Standard ISO-10993, ‘Biological evaluation of medical devices—Part 1: Evaluation and testing within a risk management process’: Guidance for Industry and Food and Drug Administration Staff.” Center for Devices and Radiological Health (CDRH), 68p). These endpoints include chronic toxicity, reproductive and developmental toxicity, genotoxicity, carcinogenicity, and sensitization.
The in silico methods utilized an expert-rule-based program (Toxtree version 3.1.0; Ideaconsult Ltd., 2018) and the statistics-based program VEGA version 1.2.8 and Benfenati, E; Manganaro, A; Gini, G. 2013. “VEGA-QSAR: AI inside a platform for predictive toxicology.” In CEUR Workshop Proceedings, Volume 1107: Proceedings of The Second Workshop on Popularize Artificial Intelligence, (PAI 2013), Turin, Italy), consistent with the International Council for Harmonisation of Technical Requirements for Pharmaceuticals for Human Use (ICH) and US FDA guidelines for the assessment of DNA reactive impurities in pharmaceuticals (M7 guidelines; International Council for Harmonisation of Technical Requirements for Pharmaceuticals for Human Use (ICH). 2017a. “ICH Harmonised Guideline: Assessment and Control of DNA Reactive (Mutagenic) Impurities in Pharmaceuticals to Limit Potential Carcinogenic Risk M7(R1) (Current Step 4 Version); US Food and Drug Administration (US FDA 2018. “Guidance for Industry: M7(R1) Assessment and Control of DNA Reactive (Mutagenic) Impurities in Pharmaceuticals to Limit Potential Carcinogenic Risk.” Center for Drug Evaluation and Research (CDER), Center for Biologics Evaluation and Research (CBER)).
The allowable limit (AL) was calculated using the no-observed-adverse-effect level (NOAEL) limits ascertained from the literature search and in silico methods described above. The NOAELs were then adjusted by the average body weight (BW) for adult males (70 kg) and adult females (58 kg). Following the recommendations of ISO 10993-17 and ICH Q3C(R7) (International Organization for Standardization (ISO). 2002. “ISO 10993-17: Biological Evaluation of Medical Devices—Part 17: Establishment of Allowable Limits for Leachable Substances.” ISO 10993-17: 2002; International Council for Harmonisation of Technical Requirements for Pharmaceuticals for Human Use (ICH). 2018. “ICH Harmonised Guideline: Impurities: Guideline for Residual Solvents Q3C(R7) (Current Step 4 Version).”), the values were then adjusted by a series of uncertainty factors (UFs). UF1=10 to account for interindividual variation; UF2=5 for extrapolation of effects from rats to humans; UF3=10 to account for extrapolation from an oral exposure study to systemic exposure risk associated with an implanted device; UF4=5 to account for extrapolation of results from a 90-day toxicity study in rodents to lifetime exposure associated with a permanent implant; and UF5=10 to account for extrapolation of a lowest-observed-adverse-effect level (LOAEL) to a NOAEL, if needed.

[2] = cited from earlier work

Structure (SMILES) | ALfemale (allowable limit) [1] | ALmale (allowable limit) [1] | half-life temperature ([2]; for 1 minute) [°C] | half-life temperature ([2]; for 1 hour) [°C] | half-life temperature ([2]; for 10 hours) [°C]
CC(=O)c1ccccc1 [Acetophenone] | 9,810 μg/day | 11,800 μg/day |  |  | 
CC(C)(OOC(C)(C)c1ccccc1)c1ccccc1 [Dicumyl peroxide] | 1,860 μg/day | 2,240 μg/day | 120 | 80 | 61
CC(C)(O)c1ccccc1 [Cumyl alcohol] | 1,800 μg/day | 1,800 μg/day |  |  | 
C=C(CC(C)(C)c1ccccc1)c1ccccc1 [2,4-Diphenyl-4-methyl-1-pentene] | 232 µg/day | 280 µg/day |  |  | 
